Target: recombinant human NK3 receptor (Homo sapiens (Human), UniProt P29371)
Test: biochemical
Type: binding
Conditions: not given
Procedure: [^3H]SR142801 Competition Binding Assay
hNK3 receptor binding experiment were performed using [^3H]SR142801 (Catalog No. TRK1035, specific activity: 74.0 Ci/mmol, Amersham, GE Healthcare UK limited, Buckinghamshire, UK) and membrane isolated from HEK293 cells transiently expressing recombinant human NK3 receptor. After thawing, the membrane homogenates were centrifuged at 48,000×g for […] at 4° C., the pellets were resuspended in the 50 mM Tris-HCl, 4 mM MnCl2, 1 μM phosphoramidon, 0.1% BSA binding buffer at pH 7.4 to a final assay concentration of 5 μg protein/well. For inhibition experiments, membranes were incubated with [^3H]SR142801 at a concentration equal to KD value of radioligand and 10 concentrations of the inhibitory compound (0.0003-10 μM) (in a total reaction volume of 500 μl) for 75 min at room temperature (RT). At the end of the incubation, membranes were filtered onto unitfilter (96-well white microplate with bonded GF/C filter preincubated 1 h in 0.3% PEI+0.3% BSA, Packard BioScience, Meriden, Conn.) with a Filtermate 196 harvester (Packard BioScience) and washed 4 times with ice-cold 50 mM Tris-HCl, pH 7.4 buffer. Nonspecific binding was measured in the presence of 10 μM SB222200 for both radioligands. The radioactivity on the filter was counted (5 min) on a Packard Top-count microplate scintillation counter with quenching correction after addition of 45 μl of microscint 40 (Canberra Packard S.A., Zürich, Switzerland) and shaking for 1 h. Inhibition curves were fitted according to the Hill equation: y=100/(1+(x/IC50)^nH), where nH=slope factor using Excel-fit 4 software (Microsoft). IC50 values were derived from the inhibition curve and the affinity constant (Ki) values were calculated using the Cheng-Prussoff equation Ki=IC50/(1+[L]/KD) where [L] is the concentration of radioligand and KD is its dissociation constant at the receptor, derived from the saturation isotherm. All experiments were performed in duplicate and the mean±standard error (SEM) of the individual Ki values was calculated.

Chain of recombinant human NK3 receptor (P29371 whole entry): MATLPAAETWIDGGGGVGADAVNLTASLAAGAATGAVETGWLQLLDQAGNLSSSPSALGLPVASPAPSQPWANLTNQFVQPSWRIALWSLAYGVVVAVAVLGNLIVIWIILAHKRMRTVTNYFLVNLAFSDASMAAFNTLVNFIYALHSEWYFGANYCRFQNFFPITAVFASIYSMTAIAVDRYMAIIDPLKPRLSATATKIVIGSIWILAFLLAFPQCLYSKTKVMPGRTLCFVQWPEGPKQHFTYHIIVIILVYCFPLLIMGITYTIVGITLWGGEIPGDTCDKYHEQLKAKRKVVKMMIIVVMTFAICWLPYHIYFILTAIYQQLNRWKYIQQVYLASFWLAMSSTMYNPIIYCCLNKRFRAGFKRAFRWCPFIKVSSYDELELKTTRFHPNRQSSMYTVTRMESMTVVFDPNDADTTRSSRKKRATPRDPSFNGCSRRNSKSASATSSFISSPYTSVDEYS

Compound | Ki [nM]
CCN(C(=O)Oc1ccc(F)cc1)[C@@H]1CN(C(=O)C2CCN(C(=O)C3(C)CC3)CC2)C[C@H]1c1ccc(Cl)c(Cl)c1 (racemic) [Example 1, rac-{(3S,4R)-4-(3,4-Dichloro-phenyl)-1-[1-(1-methyl-cyclopropanecarbonyl)-piperidine-4-carbonyl]-pyrrolidin-3-yl}-ethyl-carbamic acid 4-fluoro-phenyl ester] | 1
CCN(C(=O)Oc1ccc(F)cc1)[C@@H]1CN(C(=O)C2CCN(c3ccc(C(N)=O)cn3)CC2)C[C@H]1c1ccc(Cl)c(F)c1 [Example 109, [(3S,4R)-1-(5′-Carbamoyl-3,4,5,6-tetrahydro-2H-[1,2′]bipyridinyl-4-carbonyl)-4-(4-chloro-3-fluoro-phenyl)-pyrrolidin-3-yl]-ethyl-carbamic acid 4-fluoro-phenyl ester] | 1.7

Same assay, conditions: [3H]SR142801, membranes of HEK293 cells transiently expressing recombinant human NK3 receptor; read-out: Data Ki (hNK-3 receptor affinity)

Compound | Ki [nM]
CCN(C(=O)Oc1ccc(F)cc1)[C@@H]1CN(C(=O)C2CCN(c3ccc(C#N)cn3)CC2)C[C@H]1c1ccc(Cl)cc1 [Example 21, [(3S,4R)-4-(4-Chloro-phenyl)-1-(5′-cyano-3,4,5,6-tetrahydro-2H-[1,2′]bipyridinyl-4-carbonyl)-pyrrolidin-3-yl]-ethyl-carbamic acid 4-fluoro-phenyl ester] | 2
CCN(C(=O)Oc1ccc(F)cc1)[C@@H]1CN(C(=O)C2CCN(c3ccc(C#N)nc3)CC2)C[C@H]1c1ccc(F)c(F)c1 [Example 51, [(3S,4R)-1-(6′-Cyano-3,4,5,6-tetrahydro-2H-[1,3′]bipyridinyl-4-carbonyl)-4-(3,4-difluoro-phenyl)-pyrrolidin-3-yl]-ethyl-carbamic acid 4-fluoro-phenyl ester] | 2
CCN(C(=O)Oc1ccc(F)cc1)[C@@H]1CN(C(=O)C2CCN(C(=O)CC#N)CC2)C[C@H]1c1ccc(Cl)cc1 [Example 93, {(3S,4R)-4-(4-Chloro-phenyl)-1-[1-(2-cyano-acetyl)-piperidine-4-carbonyl]-pyrrolidin-3-yl}-ethyl-carbamic acid 4-fluoro-phenyl ester] | 7.1
CCN(C(=O)Oc1ccc(F)cc1)[C@@H]1CN(C(=O)C2CCN(C(=O)C3(C)COC3)CC2)C[C@H]1c1ccc(Cl)c(F)c1 [Example 65, {(3S,4R)-4-(4-Chloro-3-fluoro-phenyl)-1-[1-(3-methyl-oxetane-3-carbonyl)-piperidine-4-carbonyl]-pyrrolidin-3-yl}-ethyl-carbamic acid 4-fluoro-phenyl ester] | 3
CC(C)N(C(=O)Oc1ccc(F)cc1)[C@@H]1CN(C(=O)C2CCN(c3ccc(C#N)nn3)CC2)C[C@H]1c1ccc(Cl)cc1 [Example 26, {(3S,4R)-4-(4-Chloro-phenyl)-1-[1-(6-cyano-pyridazin-3-yl)-piperidine-4-carbonyl]-pyrrolidin-3-yl}-isopropyl-carbamic acid 4-fluoro-phenyl ester] | 46
CCN(C(=O)Oc1ccc(F)cc1)[C@@H]1CN(C(=O)C2CCN(C(=O)c3ccc(F)cn3)CC2)C[C@H]1c1ccc(Cl)c(F)c1 [Example 75, {(3S,4R)-4-(4-Chloro-3-fluoro-phenyl)-1-[1-(5-fluoro-pyridine-2-carbonyl)-piperidine-4-carbonyl]-pyrrolidin-3-yl}-ethyl-carbamic acid 4-fluoro-phenyl ester] | 3
CCN(C(=O)Oc1ccc(F)cc1)[C@@H]1CN(C(=O)C2CCNCC2)C[C@H]1c1ccc(Cl)c(F)c1 [Example 56, [(3S,4R)-4-(4-Chloro-3-fluoro-phenyl)-1-(piperidine-4-carbonyl)-pyrrolidin-3-yl]-ethyl-carbamic acid 4-fluoro-phenyl ester] | 267
CCN(C(=O)Oc1ccc(F)cc1)[C@@H]1CN(C(=O)C2CCN(c3ccc(C#N)cn3)CC2)C[C@H]1c1ccc(F)c(F)c1 [Example 48, [(3S,4R)-1-(5′-Cyano-3,4,5,6-tetrahydro-2H-[1,2′]bipyridinyl-4-carbonyl)-4-(3,4-difluoro-phenyl)-pyrrolidin-3-yl]-ethyl-carbamic acid 4-fluoro-phenyl ester] | 2
CCN(C(=O)Oc1ccc(F)cc1)[C@@H]1CN(C(=O)C2CCN(c3ccc(C(C)=O)cn3)CC2)C[C@H]1c1ccc(F)c(F)c1 [Example 60, [(3S,4R)-1-(5′-Acetyl-3,4,5,6-tetrahydro-2H-[1,2′]bipyridinyl-4-carbonyl)-4-(3,4-difluoro-phenyl)-pyrrolidin-3-yl]-ethyl-carbamic acid 4-fluoro-phenyl ester] | 4
CCN(C(=O)Oc1ccc(F)cc1)[C@@H]1CN(C(=O)C2CCN(c3ccc(S(C)(=O)=O)cn3)CC2)C[C@H]1c1ccc(Cl)cc1 [Example 16, [(3S,4R)-4-(4-Chloro-phenyl)-1-(5′-methanesulfonyl-3,4,5,6-tetrahydro-2H-[1,2′]bipyridinyl-4-carbonyl)-pyrrolidin-3-yl]-ethyl-carbamic acid 4-fluoro-phenyl ester] | 2
CCN(C(=O)Oc1ccc(F)cc1)[C@@H]1CN(C(=O)C2CCN(c3ccc(C#N)nn3)CC2)C[C@H]1c1ccc(F)c(F)c1 [Example 58, [(3S,4R)-1-[1-(6-Cyano-pyridazin-3-yl)-piperidine-4-carbonyl]-4-(3,4-difluoro-phenyl)-pyrrolidin-3-yl]-ethyl-carbamic acid 4-fluoro-phenyl ester] | 5
CCN(C(=O)Oc1ccc(F)cc1)[C@@H]1CN(C(=O)C2CCN(C(=O)C3(C)CC3)CC2)C[C@H]1c1ccc(Cl)c(F)c1 [Example 44, {(3S,4R)-4-(4-Chloro-3-fluoro-phenyl)-1-[1-(1-methyl-cyclopropanecarbonyl)-piperidine-4-carbonyl]-pyrrolidin-3-yl}-ethyl-carbamic acid 4-fluoro-phenyl ester] | 2
CCN(C(=O)Oc1ccc(F)cc1)[C@@H]1CN(C(=O)C2CCN(c3ccc(F)cn3)CC2)C[C@H]1c1ccc(Cl)c(F)c1 [Example 46, [(3S,4R)-4-(4-Chloro-3-fluoro-phenyl)-1-(5′-fluoro-3,4,5,6-tetrahydro-2H-[1,2′]bipyridinyl-4-carbonyl)-pyrrolidin-3-yl]-ethyl-carbamic acid 4-fluoro-phenyl ester] | 1
CC(C)N(C(=O)Oc1ccc(F)cc1)[C@@H]1CN(C(=O)C2CCN(c3ccc(C#N)cn3)CC2)C[C@H]1c1ccc(Cl)cc1 [Example 23, [(3S,4R)-4-(4-Chloro-phenyl)-1-(5′-cyano-3,4,5,6-tetrahydro-2H-[1,2′]bipyridinyl-4-carbonyl)-pyrrolidin-3-yl]-isopropyl-carbamic acid 4-fluoro-phenyl ester] | 21
CC(=O)c1ccc(N2CCC(C(=O)N3C[C@@H](N(C(=O)Oc4ccc(F)cc4)C4CC4)[C@H](c4ccc(Cl)cc4)C3)CC2)nc1 [Example 30, [(3S,4R)-1-(5′-Acetyl-3,4,5,6-tetrahydro-2H-[1,2′]bipyridinyl-4-carbonyl)-4-(4-chloro-phenyl)-pyrrolidin-3-yl]-cyclopropyl-carbamic acid 4-fluoro-phenyl ester] | 35

Same assay, conditions: read-out: Data Ki (hNK-3 receptor affinity)

Compound | Ki [nM]
CCN(C(=O)Oc1ccc(F)cc1)[C@@H]1CN(C(=O)C2CCN(C(=O)C3CCC(=O)NC3)CC2)C[C@H]1c1ccc(Cl)cc1 (stereo partly drawn) [Example 103, {(3S,4R)-4-(4-Chloro-phenyl)-1-[1-(6-oxo-piperidine-3-carbonyl)-piperidine-4-carbonyl]-pyrrolidin-3-yl}-ethyl-carbamic acid 4-fluoro-phenyl ester] | 32.6

Source: patent US9346786B2, “Pyrrolidine compounds” (Hoffmann-La Roche Inc., priority 2009, dated 2016)
